Measurements from patent US20140107051A1, “ISOFLAVONES FOR TREATING MUCOPOLYSACCHARIDOSES” (INSTYTUT FARMACEUTYCZNY, priority 2005, published 2014).

Legend:
[1] = in vitro
[2] = test system: cultured human skin fibroblasts derived from normal individuals; test: 35S-sulphate incorporation test of glycosaminoglycans synthesis, normal cells; type: cell-based; conditions: 30 μM; for activity at 30 µM: Homo sapiens, Skin fibroblast, DMSO control = 1, read-out: Relative GAG synthesis (converted to 1 cell), Normal cells
Procedure: (§1) The activity of isoflavones was evaluated by the measure of glycosaminoglycans synthesis in 35S-sulphate incorporation test comprising incubation of the radiolabelled 35S-sulfate into GAGs in cultured human skin fibroblasts derived from normal individuals (control) and patients affected with mucopolysaccharidose (Murata et al., Arch Biochem Biophys 2003; 413: 229-235).
(§2) The negative control was DMSO (diluent for genistein and all derivatives), the positive control—genistein. […] Experiment with each cell line has been repeated twice, and every measurement has been done twice.

[3] = test system: fibroblasts of patients affected with MPS I; test: 35S-sulphate incorporation test of glycosaminoglycans synthesis, MPS I cells; type: cell-based, human; conditions: Homo sapiens, Fibroblast, 30 μM; DMSO control = 1; read-out: Relative GAG synthesis (converted to 1 cell), MPS I
Procedure: as §1, §2

[4] = test system: cultured human skin fibroblasts derived from patients affected with mucopolysaccharidose; test: 35S-sulphate incorporation test of glycosaminoglycans synthesis, different human cell lines / MPS types; type: cell-based; conditions: 30 μM; both cell lines of Table 2
Procedure: as §1, §2

`Nc1ccccc1C(=O)Oc1ccc(-c2coc3cc(O)cc(O)c3c2=O)cc1` [IFG-001] showed a CC50 at 24 h [1] of 13.9 µM, an activity at 30 µM [2] of 84% and an activity at 30 µM [3] of 170%.

With `C=CCOc1ccc(-c2coc3cc(OCC=C)cc(O)c3c2=O)cc1` [IFG-035] the CC50 at 24 h [1] was 22.6 µM, the “Inhibition in relation to genistein, first symbol (normal cells)” value (shortened to “Inhibition in relation to genistein”) [2] was 0 and the activity at 30 µM [2] was 26%. For the same compound, the activity at 30 µM [3] was 117% and the “influence on GAG synthesis compared with genistein (in words)” value [4] was “an activity comparable with genistein, but only for one cell line”.

`CC(=O)OCC1OC(Oc2cc(O)c3c(=O)c(-c4ccc(O)cc4)coc3c2)C=CC1OC1OC(COC(C)=O)C(OC(C)=O)C(OC(C)=O)C1OC(C)=O` (stereo not drawn) [IFG-021] gave a CC50 at 24 h [1] of 11 µM, an activity at 30 µM [2] of 57% and an activity at 30 µM [3] of 92%.

Compound `C=CCOC(=O)Oc1cc(O)c2c(=O)c(-c3ccc(O)cc3)coc2c1` [IFG-063] has a CC50 at 24 h [1] of 51.5 µM, an activity at 30 µM [2] of 75% and an activity at 30 µM [3] of 187%.

In the case of `O=c1c(-c2ccc(O)cc2)coc2cc(OCC3CO3)cc(O)c12` (stereo not drawn) [IFG-050], the CC50 at 24 h [1] was 11.6 µM, the “Inhibition in relation to genistein” value [2] was “+” and the activity at 30 µM [2] was 10%. For the same compound, the activity at 30 µM [3] was 73% and the “influence on GAG synthesis compared with genistein (in words)” value [4] was “stronger influence on GAG synthesis than genistein”.

With `CC(=O)Oc1ccc(-c2coc3cc(OCc4ccccc4)cc(O)c3c2=O)cc1` [IFG-067] the CC50 at 24 h [1] was 15.1 µM, the activity at 30 µM [2] was 67% and the activity at 30 µM [3] was 61%.

In the case of `O=C(O)CCCC(=O)Oc1ccc(-c2coc3cc(OCc4ccccc4)cc(O)c3c2=O)cc1` [IFG-060], the CC50 at 24 h [1] was 14.9 µM, the “Inhibition in relation to genistein” value [2] was “−” and the activity at 30 µM [2] was 43%. For the same compound, the activity at 30 µM [3] was 31%.

For `CC(C)(C)OC(=O)COc1ccc(-c2coc3cc(OCC(=O)OC(C)(C)C)cc(O)c3c2=O)cc1` [IFG-042], the CC50 at 24 h [1] was 22 µM, the “Inhibition in relation to genistein” value [2] was “+” and the activity at 30 µM [2] was 14%. For the same compound, the activity at 30 µM [3] was 49% and the “influence on GAG synthesis compared with genistein (in words)” value [4] was “stronger influence on GAG synthesis than genistein”.

Compound `CC(C)Oc1ccc(-c2coc3cc(OCc4ccccc4)cc(O)c3c2=O)cc1` [IFG-064] has a CC50 at 24 h [1] of 6.6 µM, an activity at 30 µM [2] of 68% and an activity at 30 µM [3] of 60%. The “influence on GAG synthesis compared with genistein (in words)” value [4] was “an activity comparable with genistein, but only for one cell line”.

For `C=CCOc1ccc(-c2coc3cc(OCc4ccccc4)cc(O)c3c2=O)cc1` [IFG-051], the CC50 at 24 h [1] was 14.6 µM, the “Inhibition in relation to genistein” value [2] was 0 and the activity at 30 µM [2] was 32%. The activity at 30 µM [3] was 96% and the “influence on GAG synthesis compared with genistein (in words)” value [4] was “an activity comparable with genistein, but only for one cell line”.

With `C=CCOc1cc(O)c2c(=O)c(-c3ccc(O)cc3)coc2c1` [IFG-027] the CC50 at 24 h [1] was 13.1 µM, the “Inhibition in relation to genistein” value [2] was 0/0 and the activity at 30 µM [2] was 22%. The activity at 30 µM [3] was 57% and the “influence on GAG synthesis compared with genistein (in words)” value [4] was “an activity comparable with genistein”.

`CC(C)(C)OC(=O)COc1ccc(-c2coc3cc(O)cc(O)c3c2=O)cc1` [IFG-048] showed a CC50 at 24 h [1] of 20.3 µM, an activity at 30 µM [2] of 70% and an activity at 30 µM [3] of 92%. The “influence on GAG synthesis compared with genistein (in words)” value [4] was “an activity comparable with genistein, but only for one cell line”.

For `O=c1c(-c2ccc(O)cc2)coc2cc(OCc3ccccc3)cc(O)c12` [IFG-043], the CC50 at 24 h [1] was 14.5 µM, the “Inhibition in relation to genistein” value [2] was “+” and the activity at 30 µM [2] was 17%. The activity at 30 µM [3] was 44% and the “influence on GAG synthesis compared with genistein (in words)” value [4] was “an activity comparable with genistein”.

In the case of `CC(C)Oc1ccc(-c2coc3cc(OCc4ccccc4)cc(OC(C)C)c3c2=O)cc1` [IFG-065], the CC50 at 24 h [1] was 22.7 µM, the activity at 30 µM [2] was 152% and the activity at 30 µM [3] was 97%.

Work on `COc1ccc(COc2cc(O)c3c(=O)c(-c4ccc(O)cc4)coc3c2)cc1` [IFG-062] yielded a CC50 at 24 h [1] of 12.1 µM, an activity at 30 µM [2] of 316% and an activity at 30 µM [3] of 561%.
